Experiments:
spleen lymphocytes = test: Lymphocyte stimulation assay after in vivo treatment, C57BL/6 mice; conditions: 4 days
Description: The purpose of this assay is to challenge lymphocytes in microcultures with one or more polyclonal mitogens at concentrations that will induce mitogenesis within 72 hours of stimulation.
In the mouse model, spleens are removed from different strains of mice and the spleen cells are teased free and suspended in RPMI-1640 tissue culture medium at a concentration of usually […]. These cells are dispensed at a concentration of 5.0×10^5 cells per microculture well in a 96 well flat bottom 96 well tissue culture plate. All testing of the compounds of this invention or mitogens are done in replicates of 10. The cells are then treated with PHA, Con-A, specific antigens, or buffer only. If in vitro testing is done, varying concentrations of the compounds of this invention or buffer only are added to the cells as well. After treatment with the mitogens and/or compounds of this invention, the cells are incubated for 72 hours. The response of these cells to mitogens and/or the compounds of this invention is assessed using ^14 C-thymidine labeling on the fourth day at a concentration of 0.01 μCi/well. The labeled cells are harvested using a lymphocyte harvestor and placed onto fibrous paper discs. A scintillation cocktail is added to vials containing the discs and the results are obtained using a LKB-liquid scintillation counter (Model 1216/Rackbeta II). The data is expressed as a ratio of the cpm of the mitogen stimulated group to the control (nonmitogen) treated group=lymphocyte stimulation index (LSI).
The lymphocyte stimulation assay may be performed directly on spleen cells obtained from various strains of mice not treated with the compounds of this invention or on lymphocytes obtained from human […]. […] Alternatively, the mice may be treated in vivo with the compounds of this invention by intraperitoneal multi-dose schedules, followed by sacrifice and harvesting spleen lymphocytes. These cells are then tested for their response to polyclonal mitogens or specific antigens used to immunize the mice. In this system however, no additional compound is added to the in vitro lymphocyte stimulation assay system.
Two strains of mice, C57BL/6 and BDF1 are treated for seven days with i.p. administration of either 25, 50, 100, 200, or 400 mg/kg of Cpd. 1 or just buffer. This is followed on the eighth day by a lymphocyte stimulation assay.
A comparison is made of the lymphocyte response of C57BL/6 mice treated 4 days with i.p. administration of either 50, 100, 200, 400 or 800 mg/kg of Cpd. 1, 50, 100, 200, 400 or 800 mg/kg of ascorbic acid (AA), or just buffer. This is followed on the fifth day by a lymphocyte stimulation assay.
Two strains of mice, C57BL/6 and BALB/c, are treated 4 days with i.p. administration of either 50, 100, 200, or 400 mg/kg of Cpd. 1, or just buffer. This is followed on the fifth day by a lymphocyte stimulation assay.
C57BL/6 mice were treated with four daily i.p. doses of either 50, 100, 200, or 400 mg/kg of Cpd. 1 or just buffer. On the fifth day a lymphocyte stimulation assay was performed.
Mice of the C57BL/6 strain were tested with i.p. administration of either 100, 200, 400 or 600 mg/kg of Cpd. 1 or just buffer. This was followed by removal of spleens and treatment of lymphocytes therein with mitogens PHA and Con-A.
The compound of Example 2, Cpd. 2, was tested in vivo by using C57BL/6 mice and treating them with […] or just buffer for four consecutive days by the i.p. route. On the fifth day a lymphocyte stimulation assay was performed.

L5178Y target cells = test: MLTC assay of cytotoxic lymphocyte (CTL) activity, L5178Y target cells; assay type: cell-based, mouse, DBA/2; conditions: pre-challenge TDS
Description: A mixed lymphocyte tumor culture (MLTC) immunoassay, used to determine the cytotoxic lymphocyte (CTL) activity employs lymphocytes from either immunized (sensitized) mice or DBA/2 tumor dormant state animals in various stages of the tumor dormant state (TDS). The assay employs L5178Y target cells labeled with ^51 Chromium and effector cells (sensitized lymphocytes) from the above-mentioned sources. Effector-target cell ratios will vary with different experimental conditions and may or may not include irradiated stimulator L5178Y cells. Results are expressed as % lysis of target cells based on ratio of cpm of test group over cpm of total release (maximum) both of which are corrected for spontaneous release of ^51 Cr. The assay can be performed as an 8 or 18 hour release assay.
Ten days later the resultant tumor nodule, about 1 cm in size, is surgically excised. If the excision was successful, no subcutaneous tumors develop at the site of implantation. […] These mice are considered to be in the tumor dormant state. […]
DBA/2 mice in the early stage of TDS, prior to challenge with viable L5178Y tumor cells, were used to measure the effect of Cpd. 2 on CTL activity. Cpd. 2, 0.1, 1.0, 10 or 100 μg/ml, or just buffer was added in 100 ul volumes to MLTC microculture wells containing washed spleen lymphocytes from DBA/2 mice, effector, and L5178Y target cells at varying ^E /T ratios. The MLTC reaction was performed in the presence or absence of irradiated L5178Y stimulator cells. […]

Substance: 2-furylbutyrolactone:succinimide [Cpd. 2]
- Lymphocyte Stimulation Index, Con-A (spleen lymphocytes; 50 mg/kg i.p.): 96.1
- Lymphocyte Stimulation Index, Control (no mitogen) (spleen lymphocytes; 50 mg/kg i.p.): .88
- Lymphocyte Stimulation Index, PHA (spleen lymphocytes; 50 mg/kg i.p.): 15.5
- Lymphocyte Stimulation Index, Con-A (spleen lymphocytes; 100 mg/kg i.p.): 105
- Lymphocyte Stimulation Index, Control (no mitogen) (spleen lymphocytes; 100 mg/kg i.p.): 1.5
- Lymphocyte Stimulation Index, PHA (spleen lymphocytes; 100 mg/kg i.p.): 15.4
- Lymphocyte Stimulation Index, Con-A (spleen lymphocytes; 200 mg/kg i.p.): 99.3
- Lymphocyte Stimulation Index, Control (no mitogen) (spleen lymphocytes; 200 mg/kg i.p.): .69
- Lymphocyte Stimulation Index, PHA (spleen lymphocytes; 200 mg/kg i.p.): 11.3
- Lymphocyte Stimulation Index, Con-A (spleen lymphocytes; 400 mg/kg i.p.): 109
- Lymphocyte Stimulation Index, Control (no mitogen) (spleen lymphocytes; 400 mg/kg i.p.): 1.3
- Lymphocyte Stimulation Index, PHA (spleen lymphocytes; 400 mg/kg i.p.): 12.9
- Lymphocyte Stimulation Index, Con-A (spleen lymphocytes; 600 mg/kg i.p.): 94.0
- Lymphocyte Stimulation Index, Control (no mitogen) (spleen lymphocytes; 600 mg/kg i.p.): 1.5
- Lymphocyte Stimulation Index, PHA (spleen lymphocytes; 600 mg/kg i.p.): 15.8
- effect on Con-A response (in words) (spleen lymphocytes; i.p., Con-A): only marginal stimulation of Con-A mitogenesis
- effect on PHA response (in words) (spleen lymphocytes; i.p., PHA): no effect on PHA mitogenesis
- % Lysis (L5178Y target cells; 0.1 μg/ml, E/T 12.5:1, with stimulator cells): 47.5%
- % Lysis (L5178Y target cells; 0.1 μg/ml, E/T 12.5:1, without stimulator cells): 16.5%
- % Lysis (L5178Y target cells; 0.1 μg/ml, E/T 25:1, with stimulator cells): 64.0%
- % Lysis (L5178Y target cells; 0.1 μg/ml, E/T 25:1, without stimulator cells): 29.5%
- % Lysis (L5178Y target cells; 0.1 μg/ml, E/T 50:1, with stimulator cells): 69.5%
- % Lysis (L5178Y target cells; 0.1 μg/ml, E/T 50:1, without stimulator cells): 43.5%
- % Lysis (L5178Y target cells; 0.1 μg/ml, E/T 100:1, with stimulator cells): 74.5%
- % Lysis (L5178Y target cells; 0.1 μg/ml, E/T 100:1, without stimulator cells): 48.0%
- % Lysis (L5178Y target cells; 1 μg/ml, E/T 12.5:1, with stimulator cells): 58.0%
- % Lysis (L5178Y target cells; 1 μg/ml, E/T 25:1, with stimulator cells): 69.5%
- % Lysis (L5178Y target cells; 1 μg/ml, E/T 50:1, with stimulator cells): 72.5%
- % Lysis (L5178Y target cells; 1 μg/ml, E/T 100:1, with stimulator cells): 75.5%
- % Lysis (L5178Y target cells; 10 μg/ml, E/T 12.5:1, with stimulator cells): 58.5%
- % Lysis (L5178Y target cells; 10 μg/ml, E/T 12.5:1, without stimulator cells): 26.5%
- % Lysis (L5178Y target cells; 10 μg/ml, E/T 25:1, with stimulator cells): 72.5%
- % Lysis (L5178Y target cells; 10 μg/ml, E/T 25:1, without stimulator cells): 40.0%
- % Lysis (L5178Y target cells; 10 μg/ml, E/T 50:1, with stimulator cells): 72.5%
- % Lysis (L5178Y target cells; 10 μg/ml, E/T 50:1, without stimulator cells): 56.5%
- % Lysis (L5178Y target cells; 10 μg/ml, E/T 100:1, with stimulator cells): 73.5%
- % Lysis (L5178Y target cells; 10 μg/ml, E/T 100:1, without stimulator cells): 61.5%
- % Lysis (L5178Y target cells; 100 μg/ml, E/T 12.5:1, with stimulator cells): 47.0%
- % Lysis (L5178Y target cells; 100 μg/ml, E/T 25:1, with stimulator cells): 65.0%
- % Lysis (L5178Y target cells; 100 μg/ml, E/T 50:1, with stimulator cells): 73.5%
- % Lysis (L5178Y target cells; 100 μg/ml, E/T 100:1, with stimulator cells): 78.5%
- CTL activity (in words) (L5178Y target cells; with or without stimulator cells, any E/T ratio): increase in CTL activity

Reference: US4518611A, “2-Furylbutyrolactone modulation of the immune system in mammals” (priority 1983, dated 1985)
